These results are taken from article PMC12376458, “Multi-omics analysis reveals ACOT1 as the key target of piperine in Piper Longum-mediated gastric cancer treatment” (Chinese Medicine, 2025).

The target of this test is T1, ACOT1 (Acyl-CoA Thioesterase 1) (Homo sapiens, UniProt Q86TX2).
T1 construct: endogenous protein in NP-40 cell lysate, western blot read-out; mouse MFC used for xenograft
T1 sequence (Q86TX2 2-421): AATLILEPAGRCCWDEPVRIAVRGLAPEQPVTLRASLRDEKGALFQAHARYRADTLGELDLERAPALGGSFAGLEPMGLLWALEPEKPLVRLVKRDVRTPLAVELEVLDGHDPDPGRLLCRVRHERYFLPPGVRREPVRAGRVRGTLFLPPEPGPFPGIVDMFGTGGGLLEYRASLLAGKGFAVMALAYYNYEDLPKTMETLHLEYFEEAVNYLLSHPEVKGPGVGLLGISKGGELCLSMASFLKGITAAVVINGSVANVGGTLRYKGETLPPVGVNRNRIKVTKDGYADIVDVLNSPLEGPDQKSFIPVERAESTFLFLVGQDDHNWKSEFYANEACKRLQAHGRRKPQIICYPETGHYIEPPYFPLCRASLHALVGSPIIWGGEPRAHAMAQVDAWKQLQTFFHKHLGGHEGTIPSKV
Briefly: cellular thermal shift assay (CETSA) in cell lysate, western blot. In kind it is biochemical. As to conditions: 60 μM piperine vs DMSO, 4 °C 5 h, then 35–60 °C for 3 min. On the technique in general: A western blot detects proteins with antibodies after separation by electrophoresis.

For `O=C(/C=C/C=C/c1ccc2c(c1)OCO2)N1CCCCC1` [piperine], the “cellular thermal shift assay (CETSA) in cell lysate, western blot” value is “CETSA experimental results showed that piperine treatment enhanced the thermal stability of ACOT1”.
